This passage reports IC50 and Kd results from PMC11379708, “Divergent mechanisms of steroid inhibition in the human ρ1 GABAA receptor” (Nature Communications, 2024).

As usually defined, the IC50 is the concentration that gives 50% inhibition. Low values mean inhibition by little substance, high ones a need for much substance. The Kd is the constant that tells how readily two partners part at equilibrium. A high value points to lower affinity.

Counter-ions that a name gives are not always drawn.

Test [1] concerns the target T1, human ρ1 GABAA receptor (Homo sapiens, UniProt P24046).
T1 construct: gene GABRR1; ρ1-EM (flexible N-terminal region and intracellular M3-M4 loop deleted), homopentamer in saposin nanodiscs
As to the kind of experiment: cryo-EM structure ([…] Å); TEVC inhibition in Xenopus oocytes; F283Y/F284Y ablates inhibition. In kind it is cell-based.

In test [2] the target is T1, human ρ1 GABAA receptor. Briefly: cryo-EM structure with GABA; TEVC voltage-dependent block (Woodhull fit). In kind it is cell-based.

T1 sequence (P24046 22-479): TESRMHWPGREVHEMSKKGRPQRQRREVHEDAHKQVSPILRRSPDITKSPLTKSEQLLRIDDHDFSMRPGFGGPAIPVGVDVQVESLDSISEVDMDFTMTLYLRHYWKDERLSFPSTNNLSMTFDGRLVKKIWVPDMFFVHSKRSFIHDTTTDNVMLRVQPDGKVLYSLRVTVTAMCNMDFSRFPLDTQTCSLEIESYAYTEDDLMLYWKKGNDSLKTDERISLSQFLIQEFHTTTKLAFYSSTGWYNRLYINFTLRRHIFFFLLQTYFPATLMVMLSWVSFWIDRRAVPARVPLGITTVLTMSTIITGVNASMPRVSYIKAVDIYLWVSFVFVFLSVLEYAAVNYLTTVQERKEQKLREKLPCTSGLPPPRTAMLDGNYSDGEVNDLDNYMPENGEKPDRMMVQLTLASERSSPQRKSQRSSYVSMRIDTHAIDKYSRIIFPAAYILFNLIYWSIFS

In the case of `C[C@]12CC[C@@H]3c4ccc(O)cc4CC[C@H]3[C@@H]1CC[C@@H]2O` [E2, β-estradiol], on human ρ1 GABAA receptor [1], the IC50 was around 30 µM.

Take `CC(=O)C1CCC2C3CC=C4CC(OS(=O)(=O)O)CCC4(C)C3CCC12C` (centres unmarked) [PS, pregnenolone sulfate]: on human ρ1 GABAA receptor [2], the affinity, expressed as Kd, was 36.3 µM.
